Data set [1] in a line: Ratio of drug level in brain to plasma in mouse at 2 mg/kg, po. The format is ADME, organism-based. More on the design: dose 2 mg/kg, route oral. The conditions noted are these: read-out: BPR.
Data set [2] has as its target 3',5'-cyclic-AMP phosphodiesterase 7B (Homo sapiens, UniProt Q9NP56). As to the kind of experiment: Inhibition of PDE7B.
For data set [3], the target named is cGMP-inhibited 3',5'-cyclic phosphodiesterase 3A (Homo sapiens, UniProt Q14432). As to the kind of experiment: Inhibition of PDE3A.
Data set [4] has as its target cGMP-specific 3',5'-cyclic phosphodiesterase (Homo sapiens, UniProt O76074). As to the kind of experiment: Inhibition of PDE5A.
Data set [5] concerns Brain. As to the kind of experiment: Drug level in mouse brain measured per gram of tissue at 2 mg/kg, po. It is filed as ADME, organism-based. Details: dose 2 mg/kg, route oral. The conditions noted are these: in vivo.
In data set [6] the test system is Plasma. As to the kind of experiment: Drug level in mouse plasma at 2 mg/kg, po. It is filed as ADME, organism-based. Details: dose 2 mg/kg, route oral. The conditions noted are these: in vivo.
Data set [7] has as its target Dual specificity calcium/calmodulin-dependent 3',5'-cyclic nucleotide phosphodiesterase 1B (Homo sapiens, UniProt Q01064). As to the kind of experiment: Inhibition of PDE1B.
For data set [8], the target named is 3',5'-cyclic-AMP phosphodiesterase 4D (Homo sapiens, UniProt Q08499). Put plainly: Inhibition of PDE4D6.
For data set [9], the target named is cAMP and cAMP-inhibited cGMP 3',5'-cyclic phosphodiesterase 10A (Homo sapiens, UniProt Q9Y233). Put plainly: Inhibition of human PDE10A expressed in Sf9 cells using [3H]cAMP by scintillation proximity assay. On the technique in general: SPA uses beads or plates that emit light when radiolabelled molecules are held near them.
The nature of data set [10]: Ratio of drug level in brain to plasma in mouse at 5 mg/kg, sc. Details: dose 5 mg/kg, route subcutaneous. The format is ADME, organism-based. The note with it: read-out: BPR.
Data set [11] concerns Brain. As to the kind of experiment: Drug level in mouse brain measured per gram of tissue at 5 mg/kg, sc. It is filed as ADME, organism-based. More on the design: dose 5 mg/kg, route subcutaneous. The note with it: in vivo.
Data set [12] has as its system Plasma. As to the kind of experiment: Drug level in mouse plasma at 5 mg/kg, sc. Details: dose 5 mg/kg, route subcutaneous. The note with it: in vivo. The format is ADME, organism-based.

Sequence of cAMP and cAMP-inhibited cGMP 3',5'-cyclic phosphodiesterase 10A (Q9Y233 whole entry): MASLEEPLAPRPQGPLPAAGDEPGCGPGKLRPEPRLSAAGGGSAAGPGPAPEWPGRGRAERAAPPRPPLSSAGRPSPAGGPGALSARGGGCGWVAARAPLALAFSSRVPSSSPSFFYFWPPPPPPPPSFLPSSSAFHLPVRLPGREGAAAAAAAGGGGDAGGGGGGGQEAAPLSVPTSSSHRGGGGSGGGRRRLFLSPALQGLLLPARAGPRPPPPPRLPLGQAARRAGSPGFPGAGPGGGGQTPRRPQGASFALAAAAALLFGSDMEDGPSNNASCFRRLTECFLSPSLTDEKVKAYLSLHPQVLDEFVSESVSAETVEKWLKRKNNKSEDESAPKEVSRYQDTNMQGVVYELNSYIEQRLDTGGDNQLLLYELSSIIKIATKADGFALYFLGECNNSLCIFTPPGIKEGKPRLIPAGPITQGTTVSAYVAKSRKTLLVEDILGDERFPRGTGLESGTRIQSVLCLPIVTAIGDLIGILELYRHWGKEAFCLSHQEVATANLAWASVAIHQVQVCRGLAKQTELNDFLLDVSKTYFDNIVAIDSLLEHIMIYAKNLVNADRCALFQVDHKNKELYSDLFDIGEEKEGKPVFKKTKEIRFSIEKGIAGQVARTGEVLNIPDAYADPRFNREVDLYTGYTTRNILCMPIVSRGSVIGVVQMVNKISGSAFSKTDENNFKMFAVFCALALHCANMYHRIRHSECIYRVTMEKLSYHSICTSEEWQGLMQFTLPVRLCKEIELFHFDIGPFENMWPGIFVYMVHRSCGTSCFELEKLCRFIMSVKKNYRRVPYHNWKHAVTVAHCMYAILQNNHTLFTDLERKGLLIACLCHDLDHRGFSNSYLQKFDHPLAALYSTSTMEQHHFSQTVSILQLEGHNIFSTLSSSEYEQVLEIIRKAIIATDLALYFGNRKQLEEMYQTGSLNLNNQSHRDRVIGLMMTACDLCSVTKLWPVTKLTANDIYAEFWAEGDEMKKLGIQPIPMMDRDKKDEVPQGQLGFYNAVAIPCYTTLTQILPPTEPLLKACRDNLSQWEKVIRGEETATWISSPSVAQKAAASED
Sequence of 3',5'-cyclic-AMP phosphodiesterase 4D (Q08499 whole entry): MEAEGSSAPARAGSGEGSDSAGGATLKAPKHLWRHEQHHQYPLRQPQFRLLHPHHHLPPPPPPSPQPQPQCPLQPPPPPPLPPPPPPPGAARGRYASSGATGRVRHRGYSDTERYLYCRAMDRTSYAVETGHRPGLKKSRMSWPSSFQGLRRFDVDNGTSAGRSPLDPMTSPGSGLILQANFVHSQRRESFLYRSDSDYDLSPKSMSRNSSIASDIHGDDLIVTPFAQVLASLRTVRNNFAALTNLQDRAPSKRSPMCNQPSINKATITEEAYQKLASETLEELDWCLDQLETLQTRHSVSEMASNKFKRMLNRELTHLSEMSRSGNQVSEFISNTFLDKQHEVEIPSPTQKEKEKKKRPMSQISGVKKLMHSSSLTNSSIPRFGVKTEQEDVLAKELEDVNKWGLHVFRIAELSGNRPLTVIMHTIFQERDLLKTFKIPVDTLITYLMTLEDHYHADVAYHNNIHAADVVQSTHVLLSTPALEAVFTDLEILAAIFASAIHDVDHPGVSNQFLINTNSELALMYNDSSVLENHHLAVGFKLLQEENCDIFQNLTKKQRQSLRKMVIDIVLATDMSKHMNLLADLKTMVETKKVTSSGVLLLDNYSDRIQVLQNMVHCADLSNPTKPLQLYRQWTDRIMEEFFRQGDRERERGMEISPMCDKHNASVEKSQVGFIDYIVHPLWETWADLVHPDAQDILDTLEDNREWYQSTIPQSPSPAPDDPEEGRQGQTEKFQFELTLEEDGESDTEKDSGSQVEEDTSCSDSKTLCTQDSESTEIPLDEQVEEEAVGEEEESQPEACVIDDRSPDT
Sequence of Dual specificity calcium/calmodulin-dependent 3',5'-cyclic nucleotide phosphodiesterase 1B (Q01064 whole entry): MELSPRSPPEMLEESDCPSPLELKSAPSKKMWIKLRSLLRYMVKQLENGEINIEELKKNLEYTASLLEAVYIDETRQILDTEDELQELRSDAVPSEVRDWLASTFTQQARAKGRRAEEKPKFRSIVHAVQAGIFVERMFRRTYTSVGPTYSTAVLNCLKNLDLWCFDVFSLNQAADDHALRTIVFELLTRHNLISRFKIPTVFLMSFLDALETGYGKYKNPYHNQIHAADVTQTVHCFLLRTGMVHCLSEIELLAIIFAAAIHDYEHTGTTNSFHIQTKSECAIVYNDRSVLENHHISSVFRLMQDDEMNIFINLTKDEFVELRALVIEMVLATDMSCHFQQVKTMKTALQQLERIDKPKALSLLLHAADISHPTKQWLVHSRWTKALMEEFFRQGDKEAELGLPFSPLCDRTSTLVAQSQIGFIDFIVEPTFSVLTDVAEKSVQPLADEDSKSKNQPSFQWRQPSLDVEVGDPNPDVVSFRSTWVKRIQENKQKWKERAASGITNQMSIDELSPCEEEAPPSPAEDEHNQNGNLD
Sequence of cGMP-inhibited 3',5'-cyclic phosphodiesterase 3A (Q14432 whole entry): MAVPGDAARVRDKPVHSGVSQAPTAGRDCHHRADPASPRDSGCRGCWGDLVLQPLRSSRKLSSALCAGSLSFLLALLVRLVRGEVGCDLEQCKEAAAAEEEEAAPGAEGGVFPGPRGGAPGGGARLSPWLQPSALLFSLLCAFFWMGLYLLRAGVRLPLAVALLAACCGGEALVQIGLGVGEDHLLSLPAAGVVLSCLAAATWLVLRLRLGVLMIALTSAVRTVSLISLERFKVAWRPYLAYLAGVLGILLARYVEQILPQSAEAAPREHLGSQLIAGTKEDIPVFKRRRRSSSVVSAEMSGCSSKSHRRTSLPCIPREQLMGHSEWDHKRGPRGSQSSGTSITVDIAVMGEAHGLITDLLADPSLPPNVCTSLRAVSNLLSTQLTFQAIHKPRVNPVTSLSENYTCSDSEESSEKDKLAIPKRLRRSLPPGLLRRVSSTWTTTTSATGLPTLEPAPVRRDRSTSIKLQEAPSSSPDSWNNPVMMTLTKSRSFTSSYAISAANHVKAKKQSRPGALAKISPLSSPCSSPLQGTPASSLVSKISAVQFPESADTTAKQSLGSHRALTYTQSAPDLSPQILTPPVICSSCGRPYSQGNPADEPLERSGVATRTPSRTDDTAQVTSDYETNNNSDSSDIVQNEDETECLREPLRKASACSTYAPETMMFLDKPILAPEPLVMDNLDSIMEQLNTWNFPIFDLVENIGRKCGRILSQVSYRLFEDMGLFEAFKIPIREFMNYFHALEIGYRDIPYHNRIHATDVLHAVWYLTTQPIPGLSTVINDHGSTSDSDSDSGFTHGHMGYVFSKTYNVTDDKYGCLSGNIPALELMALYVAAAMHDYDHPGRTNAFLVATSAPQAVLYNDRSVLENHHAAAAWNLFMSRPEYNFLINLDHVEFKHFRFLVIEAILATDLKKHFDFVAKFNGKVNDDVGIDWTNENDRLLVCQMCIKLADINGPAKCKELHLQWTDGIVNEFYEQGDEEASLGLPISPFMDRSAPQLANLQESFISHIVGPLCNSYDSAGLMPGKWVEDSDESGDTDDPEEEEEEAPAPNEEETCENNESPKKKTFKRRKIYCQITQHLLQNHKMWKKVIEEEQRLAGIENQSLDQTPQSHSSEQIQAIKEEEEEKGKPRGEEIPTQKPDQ
Sequence of 3',5'-cyclic-AMP phosphodiesterase 7B (Q9NP56 whole entry): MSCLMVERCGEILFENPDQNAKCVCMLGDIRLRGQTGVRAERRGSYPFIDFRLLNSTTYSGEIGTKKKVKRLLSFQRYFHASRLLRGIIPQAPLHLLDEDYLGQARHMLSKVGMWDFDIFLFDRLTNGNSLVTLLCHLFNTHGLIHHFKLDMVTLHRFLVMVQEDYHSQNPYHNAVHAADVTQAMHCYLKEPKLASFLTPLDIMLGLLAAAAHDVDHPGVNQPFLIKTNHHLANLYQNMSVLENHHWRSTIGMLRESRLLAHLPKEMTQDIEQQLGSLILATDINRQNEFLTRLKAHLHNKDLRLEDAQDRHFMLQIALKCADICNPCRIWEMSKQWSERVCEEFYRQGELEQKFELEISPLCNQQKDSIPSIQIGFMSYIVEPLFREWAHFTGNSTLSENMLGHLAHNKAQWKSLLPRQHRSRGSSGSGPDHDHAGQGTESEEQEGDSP

For the compound `Cc1nc2c3ccccc3nc(SCc3nc4ccccc4[nH]3)n2n1`, in data set [1], the Kp was less than 0.04. For the same compound, the IC50 in [2], in data set [3], in [4], in data set [7] and in data set [8] was 10 µM each time. Moreover, the Drug uptake is less than 25 ng/mL in the data set with Brain [5] and 629 ng/mL with Plasma [6]. Turning to `Cc1ccc2nc(CCc3nc(-c4ccccc4)cn3C)n3nc(C)cc3c2c1`, the IC50 in data set [2] stood at 10 µM; in data set [3], 10 µM; in data set [4], 10 µM; in data set [9], 0.016 µM; in data set [7], 10 µM; in data set [8], 10 µM. With `Cc1cc2c3ccccc3nc(CSc3nc(-c4ccccc4)cn3C)n2n1`, in data set [9], the IC50 was 0.048 µM.

As to `Cc1cc2c3cccc(Cl)c3nc(CSc3nc(-c4ccccc4)cn3C)n2n1`, in data set [9], the IC50 is 0.073 µM.

Compound `Cc1cc2c3ccc(Cl)cc3nc(CSc3nc(-c4ccccc4)cn3C)n2n1` displayed an IC50 in data set [9] of 0.13 µM. The same measure, in the same setting: the same measure for `Cc1cc2c3cc(Cl)ccc3nc(CSc3nc(-c4ccccc4)cn3C)n2n1`: 0.11 µM; for `COc1cccc2c1nc(CSc1nc(-c3ccccc3)cn1C)n1nc(C)cc21`: 0.083 µM.

With `COc1ccc2c(c1)nc(CSc1nc(-c3ccccc3)cn1C)n1nc(C)cc21`, half-maximal inhibition in [9] (IC50) was put at 0.1 µM. Still for that read-out and setting: the figure for `Cc1cc2c3cccc(C)c3nc(CSc3nc(-c4ccccc4)cn3C)n2n1` is 0.16 µM. Same read-out and setting: the figure for `Cc1ccc2nc(CSc3nc(-c4ccccc4)cn3C)n3nc(C)cc3c2c1` is 0.076 µM. As for `Cc1cc2c3ccccc3nc(CCc3nc(-c4ccccc4)cn3C)n2n1`, in data set [10], the Kp amounted to 0.65. The figures for the Drug uptake in the data set on Brain [11] and in the data set with Plasma [12] were 98 ng/mL and 150 ng/mL, respectively. In data set [9], this compound returned an IC50 of 0.05 µM. As for `Cc1cc2c3cccc(Cl)c3nc(CCc3nc(-c4ccccc4)cn3C)n2n1`, the IC50 in data set [9] came out at 0.052 µM. In data set [9], `Cc1cc2c3ccc(Cl)cc3nc(CCc3nc(-c4ccccc4)cn3C)n2n1` gave an IC50 of 0.05 µM. With `Cc1cc2c3cc(Cl)ccc3nc(CCc3nc(-c4ccccc4)cn3C)n2n1`, the midpoint of inhibition in data set [9], the IC50, lay at 0.016 µM.

As for `COc1cccc2c1nc(CCc1nc(-c3ccccc3)cn1C)n1nc(C)cc21`, in data set [9], the IC50 is 0.037 µM. On the same count and under the same terms, the figure for `COc1ccc2c(c1)nc(CCc1nc(-c3ccccc3)cn1C)n1nc(C)cc21` is 0.031 µM. Same read-out and setting: the figure for `COc1ccc2nc(CCc3nc(-c4ccccc4)cn3C)n3nc(C)cc3c2c1` is 0.43 µM; for `Cc1cc2c3cccc(C)c3nc(CCc3nc(-c4ccccc4)cn3C)n2n1` it is 0.078 µM.

By IC50 is commonly meant the midpoint of a concentration-inhibition curve.

The record behind these values is ChEMBL document CHEMBL1641409, “Synthesis and SAR study of new phenylimidazole-pyrazolo[1,5-c]quinazolines as potent phosphodiesterase 10A inhibitors” (Bioorg Med Chem, 2011).
